Earlier results, collected in US7867523B2, “Pharmaceutical composition” (priority 2008, dated 2011).

Tests used:
influenza virus = details: administered six hours after infection and continued for twenty-four hours
[1] = test system: immune cell types present in the blood; details: one gram daily for two weeks, patients
[2] = acute and long-term, animals, oral

Oc1ccc(C=Cc2cc(O)cc(O)c2)cc1 [resveratrol, Resveratrol]
antiviral effect (restricting ability of the virus to replicate) (influenza virus): substantial

O=C1O[C@H]([C@@H](O)CO)C(O)=C1O [vitamin C, Ascorbic acid]
interferon-gama production by T cells [1]: significantly more
number of NK cells [1]: increased
number of T cells [1]: remained the same

Arabinogalactan
toxicity [2]: no evidence of toxicity
